According to patent US20260157369A1, “COMPOSITIONS CONTAINING PEROXYACID TO INHIBIT GROWTH OF SPORE-PRODUCING ORGANISMS IN ANIMAL FEED AND RELATED METHODS” (KEMIN INDUSTRIES, INC., priority 2024, published 2026):
Converted amounts (≈) assume the structure as drawn. Read-outs that look alike come from different tables or passages of the source. Marks after values point to notes of the source that are not given here.

What was measured:
Aspergillus niger = conditions: cited from earlier work
[1] = tested on: Aspergillus niger isolate; test: Minimum fungicidal concentration (MFC); format: cell-based; conditions: for MFC: Aspergillus niger, read-out: Minimum fungicidal concentration
[2] = tested on: Penicillium chrysogenum Thom ATCC 48908; test: Well diffusion assay (zone of inhibition); format: cell-based; conditions: for zone of inhibition at 175000 µM / zone of inhibition at 350000 µM: Penicillium chrysogenum, read-out: Zone of inhibition, Average ± standard deviation
[3] = tested on: Aspergillus niger ATCC 24126; test: Well diffusion assay (zone of inhibition); format: cell-based; conditions: for zone of inhibition at 175000 µM / zone of inhibition at 350000 µM: Aspergillus niger, read-out: Zone of inhibition, Average ± standard deviation
Penicillium vericulosum = conditions: cited from earlier work
A. niger = test: Fungicidal effect in mold suspension, one hour treatment, DRBC plating; format: cell-based, Aspergillus niger; conditions: for A. niger count, Average ± standard deviation: n = 3
Protocol: Preparation of mold suspension. Aspergillus niger ATCC 24126 and Penicillium chrysogenum Thom ATCC 48908 were purchased from American Type Culture Collection (ATCC). The strains were stored at −80° C. in glycerol. Prior to test, both strains were revived by streaking a loopful of culture onto DRBC (i.e., dichloran rose-bengal chloramphenicol (CM1148B; Thermo Scientific Oxoid) prepared as per recommended by supplier) with 72 hours incubation at 25° C. The three-days old mold culture lawn was diluted in phosphate buffer (0.30 mM; pH 7.2) to obtain a mold suspension of ca. 10^6 CFU/mL. The colony count of the suspension was determined through conventional plating method using DRBC agar at the appropriate dilution. Briefly, the mold suspension was diluted to the appropriate dilution with phosphate buffer (0.30 mM; pH 7.2). Upon dilution, 100 μL of the diluted mold suspension was spread onto the DRBC agar. After which, the plates were incubated at 25° C. for five days prior to counting. Tests were carried out in triplicates.
Fungicidal effect of PPA against A. niger. The fungicidal effect of PPA in solution was evaluated in comparison to propionic acid and hydrogen peroxide. To serve as a positive control and comparison point, propionic acid, was tested at two concentrations, 1500 and 3000 ppm, equivalent to 0.02 and 0.04 mol/L. On the other hand, PPA was tested at a single concentration of 0.02 mol/L. To evaluate the effect of hydrogen peroxide, hydrogen peroxide was also included as one of the treatment groups. Hydrogen peroxide was tested at 2.43% w/w. The concentration of hydrogen peroxide to be tested is calculated based on the equivalent amount present in 0.02 mol/L of PPA, which is the sum of hydrogen peroxide already present and from the potential breakdown of PPA. A 900 μL of mold suspension (of c.a. 10^6 CFU/mL prepared in 0.9% sodium chloride) was treated with 100 μL of the test solutions (prepared in sterile water) for one hour.
After one hour, the treatment solutions were neutralized with 2 mL of sodium thiosulphate and 7 mL of phosphate buffer (0.3 mM; pH 7.2). The solution was at 10-1 dilution. Subsequently the solution was further diluted up to 10-5 with phosphate buffer. The mold count for each treatment was determined through conventional plating method using DRBC agar. Test was conducted in triplicates. Controls were prepared with i) 100 μL of sterile water instead of test solutions and ii) 900 μL of 0.9% sodium chlorine instead of mold suspension and 100 μL of sterile water instead of test solutions.

[4] = tested on: Aspergillus spp., Penicillium spp, and Fusarium spp.; conditions: Higgins et al. 1999; cited from earlier work
[5] = tested on: mold in naturally contaminated feed for laying hens; test: Mold counts in naturally contaminated laying hen feed, 7 days; conditions: 2500 ppm peroxyacid on feed, 7 days at 25° C.
Protocol: PPA acid and peracetic acid stock solutions were provided at a concentration of 20% peroxyacid. The treatment solutions were diluted to the correct concentration with ASTM Type II water before application of the treatments. Feed for laying hens that is naturally contaminated with mold was used for the study. The initial mold count of the feed was log 4.66 cfu/g. For each treatment, 100 g of feed was treated with 1.5 ml of the diluted PPA, peracetic acid or a 1:1 mix of PPA acid and peracetic acid, resulting in a final concentration of 2500 ppm of peroxyacid on the feed. The negative control treatment was treated with 1.5 ml of water. The feed was kept for 7 days at 25° C. before analysis.
Triplicate 5 g feed samples from each treatment were taken and tested for molds. Each sample was mixed vigorously with 0.1% peptone water 30 s and then a 0.1 ml aliquot of the sample was plated on DRBC agar and incubated upright in a 25° C. incubator for 5 days before counting.

[6] = 48 hours at 25° C., then DRBC plate 5 days at 25° C.
[7] = ATCC48908, 0.175 mol/L active, 72 hours, n = 3
[8] = ATCC48908, 0.350 mol/L active, 72 hours, n = 3
[9] = 0.175 mol/L active, 72 hours, n = 3
[10] = 0.350 mol/L active, 72 hours, n = 3

CCC(=O)O [Propionic acid]
concentration capable of inhibiting (Aspergillus niger): 1000-2000 ppm
Minimum fungicidal concentration [1, 6]: >5000 ppm
zone of inhibition at 175000 µM [2, 7]: 9.15 ± 0.45 mm
zone of inhibition at 350000 µM [2, 8]: 12.1 ± 0.43 mm
zone of inhibition at 175000 µM ([3]; ATCC24126, 0.175 mol/L active, 72 hours, n = 3): 9.42 ± 0.66 mm
zone of inhibition at 350000 µM ([3]; ATCC24126, 0.350 mol/L active, 72 hours, n = 3): 12.12 ± 0.03 mm
concentration capable of inhibiting (Penicillium vericulosum): 1000-2000 ppm
reduction of A. niger count (A. niger; 0.02 mol/L): no count reduction
A. niger count, Average ± standard deviation (A. niger; 0.02 mol/L): 6.01 ± 0.08^c log CFU/mL
fungicidal effect (A. niger; 0.04 mol/L (3000 ppm)): no fungicidal effect
A. niger count, Average ± standard deviation (A. niger; 0.04 mol/L): 6.08 ± 0.11^c log CFU/mL
concentration for complete inhibition [4]: lower than 0.35%

CCC(=O)OO [PPA, perpropionic acid]
Minimum fungicidal concentration [1, 6]: 500 ppm
times more effective in killing mold than propionic acid ([1]; from the MFC study): at least 5 times
Zone of inhibition, Average ± standard deviation [2, 9]: 23.80 ± 0.58^ef mm
Zone of inhibition, Average ± standard deviation [2, 10]: 35.45 ± 4.55^g mm
Zone of inhibition, Average ± standard deviation [3, 9]: 16.42 ± 2.19^d mm
Zone of inhibition, Average ± standard deviation [3, 10]: 25.67 ± 2.05^e mm
mold counts seven days after treatment versus control [5]: not significantly different from the control treatment
reduction of A. niger count (A. niger; 0.02 mol/L): at least 4 log CFU/mL

OO [Hydrogen peroxide]
Zone of inhibition, Average ± standard deviation ([2]; 0.3% v/v, 72 hours, n = 3): 17.10 ± 0.05^cd mm
Zone of inhibition, Average ± standard deviation ([2]; 0.6% v/v, 72 hours, n = 3): 19.32 ± 0.76^de mm
Zone of inhibition, Average ± standard deviation ([2]; 1.0% v/v, 72 hours, n = 3): 22.08 ± 0.34d^ef mm
Zone of inhibition, Average ± standard deviation ([3]; 0.3% v/v, 72 hours, n = 3): 8.00 ± 0.00^b mm
Zone of inhibition, Average ± standard deviation ([3]; 0.6% v/v, 72 hours, n = 3): 9.42 ± 0.16^bc mm
Zone of inhibition, Average ± standard deviation ([3]; 1.0% v/v, 72 hours, n = 3): 10.93 ± 0.31^bc mm
reduction of A. niger count (A. niger; 2.43%): approximately 1.2 log CFU/mL
A. niger count, Average ± standard deviation (A. niger; 2.43% v/v): 4.75 ± 0.13^b log CFU/mL

CC(=O)OO [Peracetic acid]
MFC [1]: 1000 µg/mL (≈ 13.1 mM)
zone of inhibition at 175000 µM ([2]; ATCC48908, 72 h): 24.1 ± 0.33 mm
zone of inhibition at 350000 µM ([2]; ATCC48908, 72 h): 36 ± 3.8 mm
zone of inhibition at 175000 µM ([3]; ATCC24126, 72 h): 16 ± 0.8 mm
zone of inhibition at 350000 µM ([3]; ATCC24126, 72 h): 24.7 ± 2.04 mm
mold counts seven days after treatment versus control [5]: not significantly different from the control treatment

CC(=O)O [Acetic acid]
MFC [1, 6]: > 5000 µg/mL
zone of inhibition at 175000 µM [2, 7]: 8.97 ± 0.55 mm
zone of inhibition at 350000 µM [2, 8]: 10.9 ± 0.75 mm

CCCC(=O)O [Butyric acid]
MFC [1, 6]: 5000 µg/mL (≈ 56.7 mM)
